The text below walks through data of patent US4980378A, “Biodegradable absorption enhancers” (priority 1988, dated 1990).

Data set [1] can be described thus: Transdermal penetration of indomethacin from ointment across shed snake skin (vertical diffusion cell). The format is in vitro ADME, black rat snake (Elahe obsoleta). How it is done: Ointments were prepared by mixing 100 mg (1%) indomethancin, 500 mg (5%) penetration enhancer and 9400 mg (94%) petrolatum at 55°-60°C. to give a homogenous dispersion of indomethacin. In each transport study, 30 mg of ointment containing […] of indomethacin was applied.
(§1) A whole shed snake skin from the molt of adult Elahe obsoleta (black rat snake) was obtained from the Animal Care Unit of the University of Kansas. Only the dorsal side of the shed snake skin was used for in vitro penetration studies. The head and tail sections of the snake skin was removed and the remainder of the skin was cut randomly into sections of approximately 2 inches by 2 inches. Each piece of snake skin was hydrated overnight by first soaking the skin in water (about 5 to 10 minutes) until it could be stretched and then placing it on a plastic pan which held some water. The pan was floated on a water-bath at 32° C. overnight.
For the transport studies using ointments, approximately 30 mg of ointment prepared as described in Example 5 was smeared evenly on an area of the 2"×2" snake skin. The ointment was smeared into an essentially circular area approximately 1.77 cm^2 and having a diameter of approximately 15 mm. The snake skin was then mounted on top of the receptor cell of a vertical diffusion cell assembly in which a small magnetic bar was inserted and filled with an isotonic buffer. A rubber o-ring was placed on top of the skin followed by the placement of the donor cell. The two cells were clamped together and transferred to a water-bath (32° C.) which had several magnetic stirrers placed underneath to stir the contents of the diffusion cells. Samples from the cells were withdrawn periodically by gravity by inputting fresh isotonic buffer into the cell inlets. The first five drops were discarded and the following […] drops were collected for analysis. These nine drops of sample solution were approximately equivalent to about 0.20 ml.
The samples were analyzed for the concentration of indomethacin using a Perkin-Elmer ISS-100 HPLC apparatus with a Perkin-Elmer LC90 UV spectrophotometric detector and a Perkin-Elmer ISS-100 automatic sampler with the detection wavelength set at 260 nm. The peak heights of the chromatograms were recorded on a Perkin-Elmer LCI-100 Laboratory Computing Integrator. A reverse phase column, RP-8 Spheri-5, 4.6×100 mm and a guard column OD-GU, purchased from Brownlee Labs, were used in conjunction with the HPLC system. The flow rate was 1.0 ml/min and the solvent system was a mixture of acetonitrile (50%) and a 0.01 M phosphate buffer (pH 3.0) (50%).
The concentration in each sample was interpreted from a standard curve which was obtained by plotting the peak areas obtained from HPL chromatograms versus four different standard solutions of indomethacin. The standard curves were linear over a range of concentrations from 2.5 to 10 µg/ml. The receptor cell volume was calibrated by weighing the amount of water in the cell. The first sample needs no concentration correction. However, the concentration in the subsequent samples can be corrected by the following equation: [formula] where Xi is number of microgram of indomethacin in the i^th sample. Yi is the concentration correction for i-l sample. The volume withdrawn for each sampling is about 0.20 ml.
(§2) Statistical analyses were performed using the Student's t-test.
Relative penetration enhancements (%) were calculated by [formula]
Azone was selected as the for comparison since it is claimed to excellent enhancer although it is too toxic; was assigned a value of 100% enhancement.
Penetration that was equal the penetration of Azone was reported as 100% rela penetration. All of the relative enhancements in Table 3 are based on the early stage or hours o penetration studies.
At least 3 or 4 cells were used for each enhancer and mean val (μg) of indomethacin in the receptor cells are plotted versus time in hours.

The conditions of data set [2]: intraperitoneal administration; cited from earlier work.
The format of data set [3] is in vitro ADME, black rat snake (Elahe obsoleta). How it is done:
Patches were prepared by first dissolving 300 mg indomethacin, 400 mg penetration enhancer, 300 mg polyethylene glycol 400 and 800 mg hydroxypropyl cellulose in 20 ml of ethanol. That viscous solution was spread on a backing layer, which was a film of ethoxycellulose, with 0.9 mm of thickness. After drying at 40° C. for one hour, two layer film patches were obtained. Circles with a diameter of 12 mm were used for the transport studies.
as §1, §2

The mark [4] stands for this setting: indomethacin ointment, 5% enhancer, relative to Azone = 100%, early stage of penetration studies, 32° C.

Where two headings read alike, the source gives them in different places.

Turning to `CCCCCCCCCCCCN1CCCCCC1=O` [Azone, 1-Dodecylazacycloheptane-2-One, reference compound], the “Relative Enhancement” value in data set [1] came to 100%. Also, the “indomethacin detected in receptor cells” value in data set [1] (ointment, early stage of less than 12 hours) is reported as “only a few”. In data set [2], the LD50 entry is “approximately 232 mg/kg”.
`CCCCCCCCCCCCCCOC(=O)CN(C)C` [Compound No. 1, tetradecyl (N,N-dimethylamino)acetate]: in data set [1] (setting [4]), the “Relative Enhancement” value came out at 100%.
For the compound `CCCCCCCCCCCCOC(=O)CN(C)C` [Compound No. 2, dodecyl (N,N-dimethylamino)acetate], in data set [1], the “Relative Enhancement” value turned out to be 200%, the “speed of effect compared with Azone” value is “faster than that of Azone” and the “transport of indomethacin compared with that accelerated by Azone” value was “twice”. Also, in data set [3], the “steady state flux for indomethacin” value turned out to be 3.84 ± 0.57 µg/h, the “steady state flux ratio versus dodecyl alcohol” value was 2.5 times and the “time to reach steady state flux of indomethacin” value is listed as “about 2 hours”.
Turning to `CCCCCCCCOC(=O)CN(C)C` [Compound No. 4, octyl (N,N-dimethylamino)acetate], the “Relative Enhancement” value in data set [1] is listed as 250%.
Regarding `CCCCCCCCCCCCOC(=O)CN(CC)CC` [Compound No. 5, dodecyl (N,N-diethylamino)acetate], the “Relative Enhancement” value in data set [1] (setting [4]) turned out to be 70%.
`CCCCCCCCCCOC(=O)CN1CCN(C)CC1` [Compound No. 6, Decyl (4-methyl-1-piperazinyl)acetate]: in data set [1] (setting [4]), the “Relative Enhancement” value was 40%.
Regarding `CCCCCCCCCCOC(=O)CN(C)C` [compound 3, decyl (N,N-dimethylamino)acetate], the “Relative Enhancement” value in data set [1] (setting [4]) is listed as 380%.
On to `CCCCCCCCCCCCO` [dodecyl alcohol, reference compound], for which, in data set [3], the “steady state flux for indomethacin” value amounted to 1.49 ± 0.21 µg/h and the “time to reach steady state flux of indomethacin” value is on record as “about 5 hours”.
